One test concerns the target T1, GluR5-2b (Rattus norvegicus, UniProt P22756).
T1 construct: expressed in transfected cells; host or cells: HEK-293-T/17
The experiment in a line: Radioligand binding ([3H]kainate displacement), Example 2. The procedure:
Radioligand binding. Membrane preparations from HEK-293-T/17 cells were prepared and used in radioligand binding assays as described previously (Sanders et al., 2005). Unlabeled analogs were used to displace [3H]kainate (10-20 nM, PerkinElmer Life and Analytical Sciences, Boston, Mass.) or [3H]AMPA (20 nM, PerkinElmer Life and Analytical Sciences, Boston, Mass.) from KARs and AMPARs, respectively. Nonspecific binding was determined in the presence of 1 mM glutamate. After 1 hour incubation at 4° C., samples were harvested by rapid filtration onto Whatman GF/C membranes. Upon addition of scintillation fluid, membranes were incubated for 1 hour at room temperature. A Beckman LS5000TD scintillation counter was used for quantification (Beckman Coulter Inc., Fullerton, Calif.). Data were plotted and fit with a one-site competition curve with fixed minima and maxima using Prism 4 (GraphPad Software, Inc). Ki's were calculated with the Cheng-Prusoff equation using the determined IC5o values and the radioligand Kd. Data were plotted and fit with a one-site competition curve with fixed minima (0) and maxima (100) (Prism4, GraphPad Software, Inc.). […]
The pharmacological profiles of the Group I analogs, 8-deoxy-neoDH and 9-deoxyneoDH, were analyzed initially in radioligand binding experiments with expressed recombinant AMPA and kainate receptor subunits. […]

For test [1], the target named is T2, GluR6 (Rattus norvegicus, UniProt P42260).
T2 construct: expressed in transfected cells; HEK 293 (patch clamp)
T2 sequence (P42260 32-908): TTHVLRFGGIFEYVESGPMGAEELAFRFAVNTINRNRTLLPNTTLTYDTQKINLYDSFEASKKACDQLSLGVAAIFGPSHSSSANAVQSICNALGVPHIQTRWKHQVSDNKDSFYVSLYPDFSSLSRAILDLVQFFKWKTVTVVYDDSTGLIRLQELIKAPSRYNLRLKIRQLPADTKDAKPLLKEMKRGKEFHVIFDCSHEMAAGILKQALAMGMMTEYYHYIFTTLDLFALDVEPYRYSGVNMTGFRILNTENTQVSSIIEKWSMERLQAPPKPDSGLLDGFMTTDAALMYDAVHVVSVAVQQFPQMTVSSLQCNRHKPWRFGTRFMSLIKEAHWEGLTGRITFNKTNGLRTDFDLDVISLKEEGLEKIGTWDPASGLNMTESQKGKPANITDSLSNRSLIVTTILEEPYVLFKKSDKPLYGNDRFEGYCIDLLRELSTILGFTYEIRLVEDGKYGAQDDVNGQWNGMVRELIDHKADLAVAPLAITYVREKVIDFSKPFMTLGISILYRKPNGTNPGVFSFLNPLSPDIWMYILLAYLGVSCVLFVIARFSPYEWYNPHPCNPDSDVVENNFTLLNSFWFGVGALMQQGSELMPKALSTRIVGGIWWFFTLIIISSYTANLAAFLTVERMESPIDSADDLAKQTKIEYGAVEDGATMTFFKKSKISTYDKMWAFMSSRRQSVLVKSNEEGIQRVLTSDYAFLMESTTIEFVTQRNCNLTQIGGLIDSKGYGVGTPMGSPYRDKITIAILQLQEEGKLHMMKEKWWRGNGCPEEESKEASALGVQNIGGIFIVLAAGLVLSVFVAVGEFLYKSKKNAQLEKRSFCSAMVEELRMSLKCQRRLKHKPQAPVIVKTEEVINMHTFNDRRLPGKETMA
The experiment in a line: Patch-clamp recordings from transfected HEK 293 cells, Example 1. The note with it: Example 1, FIG. 5. The class given is cell-based. The method, then:
Non-specific binding was defined in the presence of 1 mM glutamate. The effect of these analogs on electrophysiology was assessed as follows. HEK 293 cells were transfected with receptor cDNAs in combination with eGFP cDNA. Patch-clamp recordings from transfected cells were made 24-72 hours later using a fast application system described previously (Swanson et al., NEURON 1997; 19:913-26). (See FIG. 3.)
The effect of these analogs on electrophysiology also was assessed as described above. […] The results further indicate that the C8 and C9 substituents are necessary for binding to all AMPA and KAR subunits except for GluR5 subunits. The C9 polar group must be present and in the correct spatial orientation for high-affinity GluR5 subunit binding. Inter-domain contacts mediated by residue 721S are critical determinants of binding affinity. The epimer analog 9-deoxy-neoDH mimics the binding affinity of the di-deoxy analog MSVIII-19, but acts as an agonist rather than an antagonist.

Test [2] deals with T3, GluR5-2a (Rattus norvegicus, UniProt P22756, DEL402-416).
T3 construct: expressed in transfected cells; host or cells: HEK-293-T/17
T3 sequence (P22756 with tags, fused parts or gaps isoform P22756-2 limits assumed, stated change not applied): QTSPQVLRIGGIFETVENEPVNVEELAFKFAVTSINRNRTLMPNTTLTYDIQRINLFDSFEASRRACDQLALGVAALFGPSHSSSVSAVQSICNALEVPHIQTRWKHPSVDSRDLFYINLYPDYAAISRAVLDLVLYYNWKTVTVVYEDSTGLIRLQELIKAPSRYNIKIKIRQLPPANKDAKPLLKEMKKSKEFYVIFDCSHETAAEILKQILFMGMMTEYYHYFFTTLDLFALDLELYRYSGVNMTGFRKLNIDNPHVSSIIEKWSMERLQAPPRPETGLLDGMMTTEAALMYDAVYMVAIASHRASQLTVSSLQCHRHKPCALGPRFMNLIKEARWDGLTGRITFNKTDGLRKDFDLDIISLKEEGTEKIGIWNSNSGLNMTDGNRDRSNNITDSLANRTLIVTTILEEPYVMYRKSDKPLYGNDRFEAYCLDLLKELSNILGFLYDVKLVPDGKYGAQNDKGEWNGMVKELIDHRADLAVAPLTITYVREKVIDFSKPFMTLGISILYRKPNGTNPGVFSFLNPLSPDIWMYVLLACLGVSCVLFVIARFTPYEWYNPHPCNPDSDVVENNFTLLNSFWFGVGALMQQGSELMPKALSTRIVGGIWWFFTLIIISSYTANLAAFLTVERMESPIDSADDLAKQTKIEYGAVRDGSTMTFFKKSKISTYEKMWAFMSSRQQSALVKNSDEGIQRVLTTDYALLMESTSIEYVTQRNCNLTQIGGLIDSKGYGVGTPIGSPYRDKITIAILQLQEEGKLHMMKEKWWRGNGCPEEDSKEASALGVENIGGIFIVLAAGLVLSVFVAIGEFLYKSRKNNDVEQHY
The conditions noted are these: Sanders et al., 2005; cited from earlier work.

For test [3], the target named is T3, GluR5-2a. The conditions noted are these: Sanders et al., 2005; read-out: IC50 for inhibition of glutamate-evoked currents, GluR5-2a receptors; cited from earlier work.
In another test the target is T4, GluR5 (Rattus norvegicus, UniProt P22756).
T4 construct: expressed in transfected cells; HEK 293 (patch clamp)
T4 sequence (P22756 with tags, fused parts or gaps isoform P22756-2): as the sequence (P22756 with tags, fused parts or gaps isoform P22756-2 limits assumed, stated change not applied) above
The note with it: Tables 1-2; comparison values of neoDH and MSVIII-19 (Sanders et al., 2005); read-out: GluR5 binding affinity (displacement of [3H]kainate); cited from earlier work.

Another test concerns the target T5, KA2 (Rattus norvegicus, UniProt Q63273).
T5 construct: expressed in transfected cells; host or cells: HEK-293-T/17
T5 sequence (Q63273 15-979): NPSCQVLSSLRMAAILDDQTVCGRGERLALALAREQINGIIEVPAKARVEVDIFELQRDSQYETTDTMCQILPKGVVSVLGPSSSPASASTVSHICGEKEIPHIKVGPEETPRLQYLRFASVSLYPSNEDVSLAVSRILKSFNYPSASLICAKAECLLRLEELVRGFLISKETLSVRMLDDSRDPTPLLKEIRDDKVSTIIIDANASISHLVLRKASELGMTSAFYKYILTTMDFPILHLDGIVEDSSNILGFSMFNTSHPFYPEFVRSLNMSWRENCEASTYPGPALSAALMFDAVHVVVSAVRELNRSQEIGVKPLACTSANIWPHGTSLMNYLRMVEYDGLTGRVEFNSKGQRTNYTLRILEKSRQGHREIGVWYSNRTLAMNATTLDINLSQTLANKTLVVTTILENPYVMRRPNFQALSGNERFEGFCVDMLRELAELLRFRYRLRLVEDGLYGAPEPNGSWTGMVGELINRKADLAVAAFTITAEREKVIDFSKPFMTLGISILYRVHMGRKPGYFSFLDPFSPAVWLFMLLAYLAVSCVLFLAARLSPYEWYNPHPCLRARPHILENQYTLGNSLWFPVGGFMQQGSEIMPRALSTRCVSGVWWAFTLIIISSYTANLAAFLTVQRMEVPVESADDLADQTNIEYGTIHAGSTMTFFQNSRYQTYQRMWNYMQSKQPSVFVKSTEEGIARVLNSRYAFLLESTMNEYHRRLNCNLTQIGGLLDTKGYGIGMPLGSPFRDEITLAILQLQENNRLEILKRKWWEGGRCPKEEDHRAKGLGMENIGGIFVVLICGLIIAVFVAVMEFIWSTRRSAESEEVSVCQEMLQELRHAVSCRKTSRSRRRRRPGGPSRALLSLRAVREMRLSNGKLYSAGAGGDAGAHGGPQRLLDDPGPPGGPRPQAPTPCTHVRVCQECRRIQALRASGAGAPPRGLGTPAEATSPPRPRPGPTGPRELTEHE
The conditions noted are these: Sanders et al., 2005; cited from earlier work.

In test [4] the target is T2, GluR6. The note with it: Table 1; comparison value of MSVIII-19 (Sanders et al., 2005); read-out: GluR6 binding affinity (displacement of [3H]kainate); cited from earlier work.

SMILES strings stand for the structures. Bounds are passed on as bounds.

T1 sequence (P22756 31-905 isoform P22756-2 limits assumed): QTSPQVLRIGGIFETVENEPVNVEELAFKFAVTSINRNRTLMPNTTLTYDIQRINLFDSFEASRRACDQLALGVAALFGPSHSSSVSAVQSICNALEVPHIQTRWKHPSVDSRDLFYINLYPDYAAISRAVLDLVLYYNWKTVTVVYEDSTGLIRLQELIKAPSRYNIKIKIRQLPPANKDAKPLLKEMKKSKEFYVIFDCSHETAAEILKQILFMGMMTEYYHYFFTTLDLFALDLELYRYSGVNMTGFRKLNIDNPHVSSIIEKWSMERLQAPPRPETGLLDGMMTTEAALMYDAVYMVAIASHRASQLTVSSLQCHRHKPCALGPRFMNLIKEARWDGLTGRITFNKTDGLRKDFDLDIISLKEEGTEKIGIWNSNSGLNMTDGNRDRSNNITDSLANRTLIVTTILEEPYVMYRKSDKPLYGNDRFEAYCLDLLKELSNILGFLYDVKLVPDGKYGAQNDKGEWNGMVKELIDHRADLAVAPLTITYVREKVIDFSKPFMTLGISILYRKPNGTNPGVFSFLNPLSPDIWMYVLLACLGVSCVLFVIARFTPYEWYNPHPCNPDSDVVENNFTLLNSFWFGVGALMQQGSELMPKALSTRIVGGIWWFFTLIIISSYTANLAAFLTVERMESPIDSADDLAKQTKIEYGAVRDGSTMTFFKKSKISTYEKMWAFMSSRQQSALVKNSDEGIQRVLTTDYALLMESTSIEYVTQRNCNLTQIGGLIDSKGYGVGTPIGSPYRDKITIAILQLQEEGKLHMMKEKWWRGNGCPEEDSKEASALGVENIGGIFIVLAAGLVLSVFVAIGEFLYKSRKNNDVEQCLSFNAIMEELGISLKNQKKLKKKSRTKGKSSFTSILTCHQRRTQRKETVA

As for `N[C@@H](C[C@]1(C(=O)O)C[C@H]2OC[C@@H](O)C[C@H]2O1)C(=O)O` [8-deoxy-neoDH], at GluR5-2b, the Ki amounted to 2 nM.

As for `N[C@@H](C[C@@]1(C(=O)O)CC2OCC(O)C(O)C2O1)C(=O)O` (single isomer, unassigned) [4-epi-neoDH, 4-epi-neodysiherbaine], the “agonist or antagonist at GluR6 (electrophysiology)” value at GluR6 [1] was “GluR5/GluR6 antagonist”.

As for `N[C@@H](C[C@]1(C(=O)O)C[C@H]2OCCC[C@H]2O1)C(=O)O` [MSVIII-19, 8,9-dideoxy-neoDH], the Ki on GluR5-2a [2] is 128 nM; at GluR5, 128 nM; at GluR6 [4] it was over 100000 nM. The IC50 on GluR5-2a [3] was 23 nM. Also, the “Ki KA2” value on KA2 is over 100000 nM.
